From ChEMBL document CHEMBL1833795, “Discovery of potent, metabolically stable purine CRF-1 antagonists with differentiated binding kinetic profiles” (Bioorg Med Chem Lett, 2011)

Assays:
[1] = target: T1, Corticotropin-releasing factor receptor 1 (Homo sapiens, UniProt P34998); assay: Antagonist activity at recombinant human CRF1 receptor expressed in CHO cells assessed as inhibition of CRF-induced cAMP formation; type: functional, cell-based
T1 sequence (P34998 whole entry): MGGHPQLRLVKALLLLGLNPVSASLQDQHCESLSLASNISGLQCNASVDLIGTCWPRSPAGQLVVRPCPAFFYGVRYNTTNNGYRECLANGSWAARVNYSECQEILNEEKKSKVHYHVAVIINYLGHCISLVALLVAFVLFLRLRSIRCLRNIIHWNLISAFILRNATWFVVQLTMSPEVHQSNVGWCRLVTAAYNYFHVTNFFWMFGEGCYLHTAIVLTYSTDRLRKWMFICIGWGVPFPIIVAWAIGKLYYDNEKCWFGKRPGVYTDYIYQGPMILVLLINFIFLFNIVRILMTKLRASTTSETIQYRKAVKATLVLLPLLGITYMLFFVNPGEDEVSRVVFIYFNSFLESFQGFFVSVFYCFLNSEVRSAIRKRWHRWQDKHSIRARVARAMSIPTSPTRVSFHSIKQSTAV

[2] = tested on: Liver microsomes; assay: Intrinsic clearance in human liver microsomes assessed per mg of protein; type: ADME, Microsome
[3] = tested on: Liver microsomes; assay: Intrinsic clearance in rat liver microsomes assessed per mg of protein; type: ADME, Microsome
[4] = target: T1, Corticotropin-releasing factor receptor 1; assay: Binding affinity to recombinant human CRF1 receptor expressed in CHO cells; type: cell-based
[5] = Clearance in rat at 0.1 mg/kg; type: ADME, organism-based; parameters: dose 0.1 mg/kg; settings: in vivo
[6] = Volume of distribution at steady state in rat at 0.1 mg/kg; type: ADME, organism-based; parameters: dose 0.1 mg/kg; settings: in vivo, read-out: Vdss
[7] = Half life in rat at 0.1 mg/kg; type: ADME, organism-based; parameters: dose 0.1 mg/kg; settings: in vivo
[8] = target: T2, Corticotropin-releasing factor receptor 1 (Homo sapiens) (UniProt P34998); settings: CHO
T2 sequence (whole entry): T1 sequence (P34998 whole entry)
Description: Antagonist activity at recombinant human CRF1 receptor expressed in CHO cells assessed as dissociation half life

[9] = Oral bioavailability in rat at 8 mg/kg; type: ADME, organism-based; settings: in vivo

With `CCOc1ccc(-n2c(C)nc3c(NC(C4CC4)C4CC4)nc(C)nc32)cc1` the Ki [1] was 20 nM, the clearance [2] was 16 µL/min/mg and the clearance [3] was 29 µL/min/mg.

`Cc1nc(NC(C2CC2)C2CC2)c2nc(C)n(-c3ccc(OC(F)F)cc3)c2n1` showed a Ki [1] of 5 nM, a clearance [2] of 15 µL/min/mg and a clearance [3] of 17 µL/min/mg. For the same compound, the Kd [4] was 3 nM, the clearance [5] was 3 mL/min/kg and the Vd [6] was 2 L/kg. The half-life [7] was 11 h and the T1/2 [8] was 1 h.

Compound `COc1ccc(-n2c(C3CC(F)(F)C3)nc3c(NC(C4CC4)C4CC4)nc(C)nc32)cc1` has a Ki [1] of 261 nM.

In the case of `Cc1nc(NC(C2CC2)C2CC2)c2nc(C)n(-c3ccc(S(C)(=O)=O)cc3)c2n1`, the Ki [1] is reported as 140 nM and the clearance [2] is reported as < 9 µL/min/mg.

For `COc1ccc(-n2ncc3c(NC(C4CC4)C4CC4)nc(C)nc32)c(C)c1`, the Ki [1] was 32 nM, the clearance [2] was < 11 µL/min/mg and the clearance [3] was 25 µL/min/mg.

Compound `Cc1nc(NC(C2CC2)C2CC2)c2nc(C)n(-c3ccc(OC(F)F)cc3Cl)c2n1` has a Ki [1] of 0.373 nM, a clearance [2] of 18 µL/min/mg and a clearance [3] of 51 µL/min/mg. The Kd [4] was 0.373 nM, the clearance [5] was 8 mL/min/kg and the Vd [6] was 4.5 L/kg. The half-life [7] was 6.4 h and the T1/2 [8] was 6.2 h.

`COc1ccc(-n2c(C)nc3c(NC(C4CC4)C4CC4)nc(C)nc32)c(Cl)c1` showed a Ki [1] of 12 nM.

`CCCN(CCOC)c1nc(C)nc2c1c(C)nn2-c1ccc(OC)cc1C` showed a clearance [2] of 172 µL/min/mg, a clearance [3] of 23 µL/min/mg and a Kd [4] of 14 nM. For the same compound, the T1/2 [8] was 0.3 h.

Compound `COCc1nc2c(NC(C3CC3)C3CC3)nc(C)nc2n1-c1ccc(OC)cc1` has a Ki [1] of 157 nM.

In the case of `Cc1nc(NC(C2CC2)C2CC2)c2nc(C)n(-c3ccc(Cl)cc3)c2n1`, the Ki [1] is reported as 11 nM, the clearance [2] is reported as 28 µL/min/mg and the clearance [3] is reported as < 8.5 µL/min/mg.

`COc1ccc(-n2c(C3CCCO3)nc3c(NC(C4CC4)C4CC4)nc(C)nc32)cc1` (racemic) showed a Ki [1] of 867 nM.

Work on `Cc1nc(NC(C2CC2)C2CC2)c2nc(C)n(-c3ccc(OC(F)F)cc3F)c2n1` yielded a Ki [1] of 7 nM.

`COc1ccc(-n2c(CC(C)C)nc3c(NC(C4CC4)C4CC4)nc(C)nc32)cc1` showed a Ki [1] of 607 nM.

With `COc1ccc(-n2cnc3c(NC(C4CC4)C4CC4)nc(C)nc32)c(C)c1` the Ki [1] was 47 nM, the clearance [2] was 21 µL/min/mg and the clearance [3] was 48 µL/min/mg.

For `Cc1nc(NC(C2CC2)C2CC2)c2nc(C)n(-c3ccc(OC(F)(F)F)cc3)c2n1`, the Ki [1] was 9 nM, the clearance [2] was 17 µL/min/mg and the clearance [3] was 27 µL/min/mg.

For `COc1ccc(-n2c(C)nc3c(NC(C4CC4)C4CC4)nc(C)nc32)cc1`, the Ki [1] was 19 nM, the clearance [2] was < 10 µL/min/mg and the clearance [3] was 20 µL/min/mg. It also gave a Kd [4] of 12 nM, a clearance [5] of 4 mL/min/kg and a Vd [6] of 2 L/kg. For the same compound, the half-life [7] was 2.7 h and the T1/2 [8] was 0.5 h.

`CCC(CC)Nc1cc(C)nc2c(-c3ccc(OC)cc3C)c(C)nn12` gave a Ki [1] of 1.5 nM, a Kd [4] of 0.279 nM and a T1/2 [8] of 5.5 h.

`COc1ccc(-n2c(C)nc3c(NC(C4CC4)C4CC4)nc(C)nc32)c(C)c1` gave a Ki [1] of 14 nM, a clearance [2] of 10 µL/min/mg and a clearance [3] of 37 µL/min/mg.

`Cc1nc(NC(C2CC2)C2CC2)c2nc(C)n(-c3ccc(C#N)cc3)c2n1` showed a Ki [1] of 62 nM, a clearance [2] of 16 µL/min/mg and a clearance [3] of 22 µL/min/mg.

For `Cc1nc(NC(C2CC2)C2CC2)c2nc(C)n(-c3ccc(F)cc3)c2n1`, the Ki [1] was 91 nM, the clearance [2] was 15 µL/min/mg and the clearance [3] was < 8.5 µL/min/mg.

`CCCN(CCC)c1cc(C)nc2c(-c3cnc(N(C)C)cc3C)c(C)nn12` showed a T1/2 [8] of 12.8 h.

In the case of `COc1cc(OC(F)F)ccc1-n1c(C)nc2c(NC(C3CC3)C3CC3)nc(C)nc21`, the Ki [1] is reported as 0.291 nM, the clearance [2] is reported as 19 µL/min/mg and the clearance [3] is reported as 38 µL/min/mg. For the same compound, the Kd [4] was 0.291 nM, the clearance [5] was 9 mL/min/kg and the Vd [6] was 8.2 L/kg. The half-life [7] was 10 h, the bioavailability [9] was 52% and the T1/2 [8] was 10.7 h.

`COc1ccc(-n2c(CC3CC3)nc3c(NC(C4CC4)C4CC4)nc(C)nc32)cc1` gave a Ki [1] of 308 nM.
